Patent publication US11414384B2, “P300/CBP hat inhibitors” (Constellation Pharmaceuticals, Inc., priority 2018, dated 2022)

Legend:
[1] = biological target: p300 HAT domain (residues 1287-1666) (Homo sapiens (Human), UniProt Q09472); assay: p300 HAT SPA assay (scintillation proximity assay, acetylation of biotinylated H3(1-21) peptide); format: biochemical; settings: p300 HAT domain; average of at least 2 replicate titrations; read-out: P300 HAT SPA IC50
Outline: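 Scintillation proximity readout of acetylated biotin-H3(1-21) captured on streptavidin plates after 1.5 hr at RT; enzyme was Ni2+/anion-exchange-purified HAT domain in 20 mM Hepes pH 7.5. Inhibitor IC50s calculated from the data.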

[2] = tested on: acetylation of chromatin at H3K18 (catalyzed by p300 and CBP) in HCT-116 cells; assay: H3K18Ac MSD cellular assay; format: cell-based; settings: 2 hr treatment, average of at least 2 replicate titrations
Protocol: Select compounds were also evaluated in a H3K18Ac MSD cellular assay that measures the ability of compounds to inhibit the acetylation of chromatin at H3K18, a process catalyzed by p300 and CBP. In a typical experiment the p300 HAT inhibitory activity inside cells of the compounds described herein was determined in accordance with the following experimental method. 20 k HCT-116 cells per well are plated in 75 μL RPMI+10% FBS media the night before treatment. Compounds plated in DMSO at 4× final concentration are resuspended in 30 μL RPMI+10% FBS, then 25 μL is combined with corresponding wells containing cells. Treated cells are incubated for 2 hr at 37° C., then lysed in 500 μL final volume and frozen at −80° C. MSD plates (Meso Scale Discovery) are coated overnight at 4° C. with 60 μL 1:500α-total histone antibody (Millipore MAB3422) in PBS. Plates are then blocked with 5% BSA in TBST shaking at RT for 1 hr, washed, and 30 μL lysate added to each well for 2 hr shaking at RT. Plates are washed and 25 μL 1:216α-H3K18ac antibody (CST 9675) in PBS added, then incubated for 1 hr shaking at RT. Plates are washed again, then 25 μL 1:1000 Sulfo-Tag goat a-rabbit antibody (Meso Scale Discovery R32Ab-1) in PBS is added for 1 hr shaking at RT. Plates are washed once more, then 150 μL 1× Read Buffer (MSD #R92TD-3) is added to all wells and read on MSD SECTOR Imager 2400 using the conventional read setup.

Sequence of p300 HAT domain (residues 1287-1666) (Q09472 1287-1666): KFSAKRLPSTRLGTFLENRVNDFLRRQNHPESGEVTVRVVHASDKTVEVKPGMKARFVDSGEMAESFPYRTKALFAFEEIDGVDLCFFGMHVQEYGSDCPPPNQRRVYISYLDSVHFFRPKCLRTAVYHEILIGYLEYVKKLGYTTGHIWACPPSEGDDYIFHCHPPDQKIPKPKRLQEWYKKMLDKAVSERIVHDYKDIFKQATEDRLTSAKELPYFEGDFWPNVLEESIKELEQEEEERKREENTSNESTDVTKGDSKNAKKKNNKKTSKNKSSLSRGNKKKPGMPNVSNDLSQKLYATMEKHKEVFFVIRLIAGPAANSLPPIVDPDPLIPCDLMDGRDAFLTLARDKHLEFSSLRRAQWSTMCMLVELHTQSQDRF

Row | Compound | IC50 [1] | EC50 ([2]; Homo sapiens, HCT-116, 2 h) | EC50 [2]
1 | CC(CNC(C(=O)c1c[nH]c2ccccc12)c1ccccc1)c1ccc(Cl)cc1 (single isomer, unassigned) [26 Isomer 1] | > 30000 nM | – | > 10000 nM
2 | Cn1cc(-c2ccc3c(C(=O)C(NCCc4ccc(C#N)cc4)c4ccccc4)cnn3c2)cn1 (single isomer, unassigned) [79 Isomer 1] | – | – | 366 nM
3 | Cn1cc(-c2ccc3c(C(=O)C(NCCc4ccc(C#N)cc4)c4ccccc4)c[nH]c3c2)cn1 (single isomer, unassigned) [84 Isomer 2] | – | 37.5 nM | –
4 | CCN1CC(NC(=O)c2ccc3c(C(=O)C(NCCc4ccc(C#N)cc4)c4ccccc4)c[nH]c3c2)C1 (single isomer, unassigned) [163 Isomer 1] | 2840 nM | – | –
5 | CCN(CC)C(=O)c1ccc2c(C(=O)C(NCCc3ccc(C#N)cc3)c3ccccc3)c[nH]c2c1 (single isomer, unassigned) [165 Isomer 1] | 4330 nM | – | –
6 | CCN(CC)C(=O)c1ccc2c(C(=O)C(NCCc3ccc(C#N)cc3)c3ccccc3)c[nH]c2c1 (single isomer, unassigned) [165 Isomer 2] | 2360 nM | – | –
7 | N#Cc1ccc(CCNC(C(=O)c2c[nH]c3cc(C(=O)NC4CS(=O)(=O)C4)ccc23)c2ccccc2)cc1 (single isomer, unassigned) [166 Isomer 1] | 123 nM | – | –
8 | CC(C)NC(=O)c1ccc2c(C(=O)C(NCCc3ccc(C#N)cc3)c3ccccc3)c[nH]c2c1 (single isomer, unassigned) [167 Isomer 1] | 23.2 nM | – | –
9 | C[C@H](O)CNC(=O)c1ccc2c(C(=O)C(NCCc3ccc(C#N)cc3)c3ccccc3)c[nH]c2c1 (single isomer, unassigned) [168 Isomer 2] | 53.1 nM | – | –
10 | C[C@H](NC(=O)c1ccc2c(C(=O)C(NCCc3ccc(C#N)cc3)c3ccccc3)c[nH]c2c1)C(F)(F)F (single isomer, unassigned) [169 Isomer 2] | 87.1 nM | – | –
11 | CN(C)C(=O)c1ccc2c(C(=O)C(NCCc3ccc(C#N)cc3)c3ccccc3)c[nH]c2c1 (single isomer, unassigned) [172 Isomer 1] | 4240 nM | – | –
12 | CN(C)C(=O)c1ccc2c(C(=O)C(NCCc3ccc(C#N)cc3)c3ccccc3)c[nH]c2c1 (single isomer, unassigned) [172 Isomer 2] | 657 nM | – | –
13 | CS(=O)(=O)CCCNC(=O)c1ccc2c(C(=O)C(NCCc3ccc(C#N)cc3)c3ccccc3)c[nH]c2c1 (single isomer, unassigned) [175 Isomer 1] | 917 nM | – | –
14 | Cn1cc(-c2ccc3c(C(=O)C(NCCc4ccc(C(N)=O)cc4)c4ccccc4)c[nH]c3c2)nn1 (single isomer, unassigned) [180 Isomer 1] | 4330 nM | – | –
15 | COCCn1cc(-c2ccc3c(C(=O)C(NCCc4ccc(C(N)=O)cc4)c4ccccc4)c[nH]c3c2)cn1 (single isomer, unassigned) [183 Isomer 1] | > 5000 nM | – | –
16 | COCCn1cc(-c2ccc3c(C(=O)C(NCCc4ccc(C(N)=O)cc4)c4ccccc4)c[nH]c3c2)cn1 (single isomer, unassigned) [183 Isomer 2] | 717 nM | – | –
17 | O=C(c1c[nH]c2ccccc12)[C@@H](NCCc1ccc(-c2nn[nH]n2)cc1)c1ccccc1 (single isomer, unassigned) [185 Isomer 2] | > 30000 nM | – | –
18 | O=C(c1c[nH]c2ccccc12)[C@@H](NCCc1ccc(-c2nnc[nH]2)cc1)c1ccccc1 (single isomer, unassigned) [186 Isomer 1] | 1970 nM | – | –
19 | O=C(c1c[nH]c2ccccc12)[C@@H](NCCc1ccc(-c2nnc[nH]2)cc1)c1ccccc1 (single isomer, unassigned) [186 Isomer 2] | 3540 nM | – | –

The remaining lines, values ahead:

Row | IC50 [1] | EC50 ([2]; Homo sapiens, HCT-116, 2 h) | EC50 [2] | Compound
20 | 706 nM | 282 nM | – | O=C(c1c[nH]c2ccccc12)C(NCCc1ccc(Cl)cc1Cl)c1ccccc1 (single isomer, unassigned) [19 Isomer 2]
21 | 4560 nM | – | 2530 nM | CC(CNC(C(=O)c1c[nH]c2ccccc12)c1ccccc1)c1ccc(Cl)cc1 (single isomer, unassigned) [26 Isomer 2]
22 | 3790 nM | – | 6110 nM | CC(CNC(C(=O)c1c[nH]c2ccccc12)c1ccccc1)c1ccc(Cl)cc1 (single isomer, unassigned) [26 Isomer 3]
23 | – | – | 60 nM | Cn1cc(-c2ccc3c(C(=O)C(NCCc4ccc(C#N)cc4)c4ccccc4)cnn3c2)cn1 (single isomer, unassigned) [79 Isomer 2]
24 | 135 nM | – | – | N#Cc1ccc(CCNC(C(=O)c2c[nH]c3cc(C(=O)NC4CN(CC(F)(F)F)C4)ccc23)c2ccccc2)cc1 (single isomer, unassigned) [162 Isomer 2]
25 | 746 nM | – | – | CC(C)NC(=O)c1ccc2c(C(=O)C(NCCc3ccc(C#N)cc3)c3ccccc3)c[nH]c2c1 (single isomer, unassigned) [167 Isomer 2]
26 | 4120 nM | – | – | C[C@H](O)CNC(=O)c1ccc2c(C(=O)C(NCCc3ccc(C#N)cc3)c3ccccc3)c[nH]c2c1 (single isomer, unassigned) [168 Isomer 1]
27 | 1790 nM | – | – | C[C@H](NC(=O)c1ccc2c(C(=O)C(NCCc3ccc(C#N)cc3)c3ccccc3)c[nH]c2c1)C(F)(F)F (single isomer, unassigned) [169 Isomer 1]
28 | 296 nM | – | – | C[C@@H](NC(=O)c1ccc2c(C(=O)C(NCCc3ccc(C#N)cc3)c3ccccc3)c[nH]c2c1)C(F)(F)F (single isomer, unassigned) [170 Isomer 1]
29 | 4110 nM | – | – | C[C@@H](NC(=O)c1ccc2c(C(=O)C(NCCc3ccc(C#N)cc3)c3ccccc3)c[nH]c2c1)C(F)(F)F (single isomer, unassigned) [170 Isomer 2]
30 | > 5000 nM | – | – | N#Cc1ccc(CCNC(C(=O)c2c[nH]c3cc(C(=O)N4CCCC4)ccc23)c2ccccc2)cc1 (single isomer, unassigned) [171 Isomer 1]
31 | 932 nM | – | – | N#Cc1ccc(CCNC(C(=O)c2c[nH]c3cc(C(=O)N4CCCC4)ccc23)c2ccccc2)cc1 (single isomer, unassigned) [171 Isomer 2]
32 | 1700 nM | – | – | C[C@@H](O)CNC(=O)c1ccc2c(C(=O)C(NCCc3ccc(C#N)cc3)c3ccccc3)c[nH]c2c1 (single isomer, unassigned) [173 Isomer 1]
33 | 21.1 nM | – | – | C[C@@H](O)CNC(=O)c1ccc2c(C(=O)C(NCCc3ccc(C#N)cc3)c3ccccc3)c[nH]c2c1 (single isomer, unassigned) [173 Isomer 2]
34 | 53.8 nM | – | – | N#Cc1ccc(CCNC(C(=O)c2c[nH]c3cc(C(=O)NCCN4CCCC4)ccc23)c2ccccc2)cc1 (single isomer, unassigned) [176 Isomer 1]
35 | 1110 nM | – | – | N#Cc1ccc(CCNC(C(=O)c2c[nH]c3cc(C(=O)NCCN4CCCC4)ccc23)c2ccccc2)cc1 (single isomer, unassigned) [176 Isomer 2]
36 | > 5000 nM | – | – | Cn1cnc(-c2ccc3c(C(=O)[C@@H](NCCc4ccc(C(N)=O)cc4)c4ccccc4)c[nH]c3c2)c1 (single isomer, unassigned) [177 Isomer 1]
37 | > 5000 nM | – | – | CN1CCC(c2ccc3c(C(=O)C(NCCc4ccc(C(N)=O)cc4)c4ccccc4)c[nH]c3c2)CC1 (single isomer, unassigned) [178 Isomer 1]
38 | 2070 nM | – | – | CN1CCC(c2ccc3c(C(=O)C(NCCc4ccc(C(N)=O)cc4)c4ccccc4)c[nH]c3c2)CC1 (single isomer, unassigned) [178 Isomer 2]
39 | 248 nM | – | – | Cn1cc(-c2ccc3c(C(=O)C(NCCc4ccc(C(N)=O)cc4)c4ccccc4)cnn3c2)cn1 (single isomer, unassigned) [179 Isomer 2]
40 | > 5000 nM | – | – | NC(=O)c1ccc(CCNC(C(=O)c2c[nH]c3cc(-n4ccnc4)ccc23)c2ccccc2)cc1 (single isomer, unassigned) [181 Isomer 2]
41 | > 5000 nM | – | – | NC(=O)c1ccc(CCNC(C(=O)c2c[nH]c3cc(-c4cnn(CCO)c4)ccc23)c2ccccc2)cc1 (single isomer, unassigned) [182 Isomer 1]
42 | 514 nM | – | – | NC(=O)c1ccc(CCNC(C(=O)c2c[nH]c3cc(-c4cnn(CCO)c4)ccc23)c2ccccc2)cc1 (single isomer, unassigned) [182 Isomer 2]
43 | 672 nM | – | – | Cc1nc(C(=O)C(NCCc2ccc(C(N)=O)cc2)c2ccccc2)c2ccc(-c3cnn(C)c3)cn12 (single isomer, unassigned) [184 Isomer 1]
44 | 522 nM | – | – | Cc1nc(C(=O)C(NCCc2ccc(C(N)=O)cc2)c2ccccc2)c2ccc(-c3cnn(C)c3)cn12 (single isomer, unassigned) [184 Isomer 2]
45 | 1100 nM | – | – | O=C(c1c[nH]c2ccccc12)[C@@H](NCCc1ccc(-c2nn[nH]n2)cc1)c1ccccc1 (single isomer, unassigned) [185 Isomer 1]
46 | > 5000 nM | – | – | Cn1cc(-c2ccc3c(C(=O)[C@@H](NCCc4ccc(N)nc4)c4ccccc4)c[nH]c3c2)cn1 (single isomer, unassigned) [187 Isomer 1]
47 | 793 nM | – | – | Cn1cc(-c2ccc3c(C(=O)[C@@H](NCCc4ccc(N)nc4)c4ccccc4)c[nH]c3c2)cn1 (single isomer, unassigned) [187 Isomer 2]
